Data set [1] deals with P. falciparum strain F32-TEM (F32-Tanzania). In words: In vitro antiplasmodial activity (SYBR Green fluorescence and [3H] hypoxanthine assays). Type of data set: cell-based, Plasmodium falciparum. The method, then:
In vitro antiplasmodial activities of the synthesized hybrid molecules were evaluated against the P. falciparum strain F32-TEM (corresponding to the parental strain F32-Tanzania). Each molecule was tested at least in three independent experiments (except Aubis(5-Bn), tested twice) by a SYBR Green Fluorescence assay but also at least once with the standard chemosensitivity assay recommended by the WHO and based on the incorporation of [^3H] hypoxanthine.
For the SYBR Green Fluorescence assay, ring stage parasites were treated with the drugs for 48 h. Then, the pellets were washed twice with PBS and frozen at −20 °C. Thawed plates were incubated for 2 h at room temperature with the SYBR Green (Thermo-Fisher, Illkirch, France) lysis buffer (20 mm Tris base pH 7.5, 5 mm EDTA, 0.008% w/v saponin, 0.08% w/v Triton X-100). The plates were then read using a fluorescence plate reader (FLx800, BioTek, Illkirch, France) at an excitation wavelength of 485 nm and 535 nm for the emission wavelength. The IC50 values (concentration inhibiting 50% of the parasite’s growth) were determined using GraphPad Prism software 7 (GraphPad Software, San Diego, CA, USA).
For [^3H] hypoxanthine assay, ring stage parasites were incubated with the drug dilutions for 24 h, then, [^3H] hypoxanthine (50 μL/0.25 μCi; Perkin-Elmer, Courtaboeuf, France) was added for another 24 h period. After that, plates were frozen at −20 °C. The next step is to thaw the plates and to collect the nucleic acids. Tritium incorporation was then determined thanks to a β-counter (Perkin-Elmer, Courtaboeuf, France).
The antiplasmodial activities reported in Table 1 correspond thus to the mean of IC50 values from at least 4 independent experiments acquired by the two methods, SYBR Green and radioactivity.

In data set [2] the test system is P. falciparum F32-ART and F32-TEM strains. In words: Recrudescence assay, comparison of F32-TEM and F32-ART (cross-resistance with artemisinin). The format is cell-based, Plasmodium falciparum. The note with it: for Mean ± SEM Difference of Recrudescence Days between F32-TEM and F32-ART: 48 h exposure; for Cross-resistance with artemisinin (result in words): recrudescence assay, F32-ART vs F32-TEM. The method, then: Three hybrid molecules with the best selectivity indexes in each series, i.e., Aubis(3-Me) (14), Aubis(4-Me) (19) and Aubis(5-Me) (23), were evaluated in vitro for their efficacy in a context of resistance to artemisinins. For that, the comparison of the recovery capacity between the strain F32-ART, artemisinin-resistant, and its twin artemisinin-sensitive F32-TEM was evaluated after 48 h-treatment with the molecule to be tested via the recrudescence assay. When ring-stage resistant parasites are exposed to artemisinin, most of them die, but a small sub-set of parasites is able to escape the treatment by a cell cycle arrest, called quiescence mechanism. This phenomenon is characterized by a halt of DNA synthesis, which explains the very low IC50 values obtained with all artemisinins even for the artemisinin-resistant strain F32-ART [9, 15, 30]. Therefore, the standard in vitro chemosensitivity assay, based on the measurement of DNA levels to estimate the inhibition of the parasite proliferation, is irrelevant to study the resistance to artemisinins and evaluate possible cross-resistances.
(§1) P. falciparum strains F32-ART and F32-TEM, synchronized at ring stage parasites at 3% parasitemia and 2% hematocrit have undergone a 48 h-treatment with the drugs to be tested. The parasites were then washed with RPMI-1640 medium and re-cultivated in drug-free culture conditions with 10% human serum. The parasitemia was then monitored daily to determine the time required for each parasite culture to recover the initial parasitemia of 3%. If no parasites were seen up to 30 days, the parasites were considered as “not recrudescent” [9, 15]. The drug doses were chosen in order to discriminate the phenotype response between the artemisinin-resistant and the -sensitive strains. A range from 1-fold to >100-fold the antiplasmodial IC50 value previously found has been tested to determine the most appropriate drug dose to use in this recrudescence assay.

The test system of data set [3] is P. falciparum F32-TEM (artemisinin-sensitive). Put plainly: Recrudescence assay after 48 h drug exposure, F32-TEM. The format is cell-based, Plasmodium falciparum. The note with it: 48 h exposure. The method, then:
(§2) The Plasmodium falciparum F32-ART and F32-TEM parasite lines, resistant and sensitive to artemisinins respectively, were cultured in vitro in type O human erythrocytes (Etablissement Français du sang (EFS), Toulouse, France), diluted to 2% hematocrit, in RPMI-1640 medium (GIBCO, Illkirch, France) and supplemented with 5% Human Serum AB (EFS, Toulouse, France) at 37 °C and 5% CO2 [33]. Every other day and before each experiment, P. falciparum F32-ART and F32-TEM parasites were synchronized at ring stage using 5% D-sorbitol solution [34].
as §1

Data set [4] concerns P. falciparum F32-ART (artemisinin-resistant). Put plainly: Recrudescence assay after 48 h drug exposure, F32-ART. Type of data set: cell-based, Plasmodium falciparum. The conditions noted are these: 48 h exposure. As for the experimental part: as §2, §1
The next data set concerns Vero cell line. In words: Cytotoxicity on Vero cells (MTT). Type of data set: cell-based, monkey. The note with it: for IC50: Vero cells, 48 h, MTT, read-out: Cytotoxicity on Vero Cells IC50 ± SEM; for Selectivity Index Vero Cells/P. falciparum: cytotoxic/antiplasmodial activity ratio. The method, then: (§3) The cells were cultured in MEM medium (Dutscher, Brumath, France) supplemented with 10% fetal bovine serum (Dutscher), 0.7 mM glutamine and 100 μg/mL gentamicin. The cells were seeded at 10^4 cells per well in a 96-well plates and incubated during 24 h. Then, cells were incubated for additional 48 h with the drugs. […] Subsequently, DMSO was added to the wells containing the cells and MTT to dissolve the formed crystals. The plates were then read to determine the absorbance at wavelength of 540 nm (µQuant, BioTek, Illkirch, France). Cell proliferation was calculated from at least three independent experiments using GraphPad Prism software 7 (GraphPad Software, San Diego, CA, USA). The cytotoxic/antiplasmodial activity ratio corresponds to the selectivity index.

Data set [5] in a line: Cytotoxicity on Vero cells (MTT). The format is cell-based, monkey. The note with it: monkey; Vero cells, 48 h, MTT; read-out: Cytotoxicity on Vero Cells IC50 ± SEM. As for the experimental part:
as §3

[6] abbreviates: strain F32-Tanzania (F32-TEM), mean of at least 4 experiments, SYBR Green and radioactivity assays, 48 h, read-out: Antiplasmodial Activity on P. falciparum IC50 ± SEM.
The mark [7] stands for this setting: Plasmodium falciparum, F32, 48 h, strain F32-Tanzania (F32-TEM), mean of at least 4 experiments, SYBR Green and radioactivity assays, read-out: Antiplasmodial Activity on P. falciparum IC50 ± SEM.

Each structure is given as a SMILES string. Read-outs that look alike come from different tables or passages of the source.

The values below come from article PMC7356589, “Hybrid Gold(I) NHC-Artemether Complexes to Target Falciparum Malaria Parasites” (Molecules, 2020).

For orientation: IC50 means the concentration at which inhibition is half-maximal. `C[C@@H]1CCC2[C@@H](C)[C@@H](OCCCCCn3cc[n+](C)[c]3[Au-][c]3n(CCCCCO[C@H]4O[C@@H]5O[C@@]6(C)CCC7[C@H](C)CCC([C@H]4C)[C@]75OO6)cc[n+]3C)O[C@@H]3O[C@@]4(C)CCC1[C@@]23OO4.[Cl-]` (some centres unmarked) [Aubis(5-Me)]: the IC50 in data set [1] (setting [6]) was found to be 9 ± 0.9 nM; in the data set on Vero cell line, 1000 nM. Also, the “Mean ± SEM Difference of Recrudescence Days between F32-TEM and F32-ART” value (“Mean ± SEM Difference” for short) is on record as 9 days in data set [2] (dose 100 nM), above 16 days in data set [2] (dose 500 nM) and 21 days in data set [2] (dose 1 µM). In addition, in data set [2], the “Cross-resistance with artemisinin (result in words)” value (shortened to “Cross-resistance with artemisinin”) is given as “cross-resistance”. Further, the “Median (range) Recrudescence Days, F32-TEM” value (shortened to “Median … F32-TEM”) is given as 15 days in data set [3] (dose 100 nM), >25.5 (21–>30) days in data set [3] (dose 500 nM) and 30 days in data set [3] (dose 1 µM). In addition, the “Median (range) Recrudescence Days, F32-ART” value (shortened to “Median … F32-ART”) in data set [4] (dose 100 nM) is 6 days; in data set [4] (dose 500 nM) it was 9.5 (8–11) days; in data set [4] (dose 1 µM), 9 days.

On to `C[C@@H]1CCC2[C@@H](C)[C@@H](OCCCn3cc[n+](C)[c]3[Au-][c]3n(CCCO[C@H]4O[C@@H]5O[C@@]6(C)CCC7[C@H](C)CCC([C@H]4C)[C@]75OO6)cc[n+]3C)O[C@@H]3O[C@@]4(C)CCC1[C@@]23OO4.O=[N+]([O-])[O-]` (some centres unmarked) [Aubis(3-Me)], for which the IC50 was determined as 35 ± 8 nM in data set [1] (setting [6]) and 5000 nM in the data set with Vero cell line. Moreover, the “Mean ± SEM Difference” value in data set [2] (dose 200 nM) was found to be 4.6 ± 1.2 days; in data set [2] (dose 500 nM), 16 days. Moreover, in data set [2], the “Cross-resistance with artemisinin” value is on record as “cross-resistance”. Also, the “Median … F32-TEM” value in data set [3] (dose 200 nM) is listed as 14 (11–16) days; in data set [3] (dose 500 nM), 24 days. Moreover, the “Median … F32-ART” value is 7 (7–13) days in data set [4] (dose 200 nM) and 8 days in data set [4] (dose 500 nM).

As to `C[C@@H]1CCC2[C@@H](C)[C@@H](OCCCBr)O[C@@H]3O[C@@]4(C)CCC1[C@@]23OO4` (stereo partly drawn) [DHA-C3, 10β-(20-Bromopropoxy)dihydroartemisinin], the IC50 in data set [1] (setting [7]) was 8.5 ± 3 nM. In addition, the “Selectivity Index Vero Cells/P. falciparum” value with Vero cell line worked out at 294. In data set [5], the half-inhibitory concentration (IC50) at 48 h was determined as 2.5 µM.

`Cc1cc(C)c(-[n+]2ccn(CCCCCO[C@H]3O[C@@H]4O[C@@]5(C)CCC6[C@H](C)CCC([C@H]3C)[C@]64OO5)c2)c(C)c1` (stereo partly drawn) [L5-Mes, 3′-Mesityl-1′-[10β-(22-pentoxy)dihydroartemisinin]1H-imidazol-3-ium bromide]: the IC50 in data set [1] (setting [7]) was below 100 nM; in data set [1] (setting [6]), 98 ± 24 nM. Besides, the “Selectivity Index Vero Cells/P. falciparum” value in the data set on Vero cell line is 255. The IC50 at 48 h in data set [5] came out at 25 µM.

On to `C[C@@H]1CCC2[C@@H](C)[C@@H](OCCCCn3cc[n+](C)[c]3[Au-][c]3n(CCCCO[C@H]4O[C@@H]5O[C@@]6(C)CCC7[C@H](C)CCC([C@H]4C)[C@]75OO6)cc[n+]3C)O[C@@H]3O[C@@]4(C)CCC1[C@@]23OO4.[Cl-]` (some centres unmarked) [Aubis(4-Me)], for which the IC50 in data set [1] (setting [6]) worked out at 13 ± 3 nM; with Vero cell line, 800 nM. The “Mean ± SEM Difference” value is reported as 1 days in data set [2] (dose 100 nM), above 17.5 ± 1.5 days in data set [2] (dose 500 nM) and 14 days in data set [2] (dose 1 µM). Also, the “Cross-resistance with artemisinin” value in data set [2] is given as “cross-resistance”. Besides, the “Median … F32-TEM” value in data set [3] (dose 100 nM) was 6 days; in data set [3] (dose 500 nM), above 30 days; in data set [3] (dose 1 µM), 30 days. The “Median … F32-ART” value in data set [4] (dose 100 nM) is 5 days; in data set [4] (dose 500 nM), 12.5 (11–14) days; in data set [4] (dose 1 µM), 16 days.

Turning to `C[C@@H]1CC[C@H]2[C@@H](C)C(=O)O[C@@H]3O[C@@]4(C)CC[C@@H]1[C@]32OO4` [Artemisinin, reference compound], the IC50 in data set [1] (setting [7]) amounted to 18 ± 2 nM. Besides, the “Mean ± SEM Difference” value is 9.7 ± 0.3 days in data set [2] (dose 18 µM) and 9.7 days in data set [2] (dose 18 µM, listed as artemisinin). For the same compound, the “Median … F32-TEM” value in data set [3] (dose 18 µM) is recorded as 18.5 (17–>30) days. Besides, the “Median … F32-ART” value in data set [4] (dose 18 µM) is on record as 9.5 (6–17) days. Further, the “Selectivity Index Vero Cells/P. falciparum” value in the data set with Vero cell line is on record as 7 000. The IC50 at 48 h in data set [5] stood at 130 µM.

On to `C[C@@H]1CCC2[C@@H](C)[C@@H](OCCCCCn3cc[n+](Cc4ccccc4)c3)O[C@@H]3O[C@@]4(C)CCC1[C@@]23OO4` (stereo partly drawn) [L5-Bn, 3′-Benzyl-1′-[10β-(22-pentoxy)dihydroartemisinin]1H-imidazol-3-ium bromide], for which the IC50 in data set [1] (setting [7]) was below 100 nM; in data set [1] (setting [6]), 98 ± 26 nM. Moreover, the “Selectivity Index Vero Cells/P. falciparum” value in the data set with Vero cell line is given as 10. Further, the IC50 at 48 h in data set [5] came out at 1 µM.

`CO[C@H]1O[C@@H]2O[C@@]3(C)CC[C@H]4[C@H](C)CC[C@@H]([C@H]1C)[C@@]24OO3` [Artemether]: the IC50 in data set [1] (Plasmodium falciparum, F32, 48 h, read-out: Antiplasmodial Activity on P. falciparum IC50 ± SEM, strain F32-Tanzania (F32-TEM), mean of at least 4 experiments, SYBR Green and radioactivity assays) came to 6.1 ± 1 nM. For the same compound, the “Selectivity Index Vero Cells/P. falciparum” value in the data set on Vero cell line is on record as 35 000.
